Measurements as given in patent US11464753B2, “Composition for treatment of neurodegenerative disease” (WINNING THE FIGHT INC., priority 2013, dated 2022).
Entries after “also recorded” stand apart in the source; their conditions may differ.

How the values were obtained:
[1] = system: patients suffering from neurodegenerative diseases; assay: Oral AKG in patients suffering from neurodegenerative diseases; format: in vivo, human
Excerpt: Initial results in mutant SOD1 mice show similar benefits compared to controls, when administered one example of the composition. […] In some instances, progression of the diseases were delayed or even reversed in human patients.
In Example A of Table A a sustained release formulation of […] is preferred.
For example, an […] ([…] or […]) is included in a composition to be used by patients with a neurodegenerative disease at a baseline dosage.
Results for people with various neurodegenerative diseases have shown that a core composition taken three times daily can provide a combination of supplements that are needed by the patients.

[2] = system: ALS patients; assay: Administration of AKG-containing compositions to human ALS patients, observation of symptoms
Protocol: In one example, 250 mg of GABA was administered three times per day per os, 30 mg of NADH was administered twice per day sublingually, and 3 grams of AAKG were administered, initially, four times per day per os, with the dosage gradually increasing up to 18 grams, if tolerated by the patient.

Row | Compound | improvement at sub-optimal dosage ([1]; AKG dosage of only six to eight grams) | symptoms when AKG was withheld ([1]; AKG withheld from a patient, then recommenced) | symptoms of neurodegenerative disease ([1]; human patients (ALS, Alzheimers, Muscular Distrophy) taking AKG) | improvement with hourly AKG ([2]; human patient, AKG supplement hourly during waking hours compared to four times per day) | symptoms of ALS after withdrawal of AKG ([2]; withdrawal for a short period (a few days)) | muscle tone and muscle spasticity ([2]; GABA administered as a supplement, patients with neurodegenerative diseases such as ALS)
1 | O=C(O)CCC(=O)C(=O)O [AKG, alpha-ketoglutaric acid] | some improvement | symptoms returned | fewer symptoms of the diseases; also recorded: marked, obvious improvements | marked improvement | return of symptoms of ALS | 
2 | NCCCC(=O)O [GABA, gamma aminobutyric acid] |  |  |  |  |  | restore muscle tone; also recorded: diminished muscle spasticity
